The subject of data set [1] is Cx3cr1+ microglia and Ccr2+ monocytes. The data set is described as follows: microglial accumulation and monocyte infiltration in Ccr2RFP/+Cx3cr1GFP/+ mice with MOG35-55 EAE. In kind it is in vivo. The following applies: prophylactic injection. The source says:
CNS-resident innate immune cell microglia and CNS-infiltrating inflammatory monocytes are essential for the inflammatory progression of EAE. Yamasaki, R. et al. J Exp Med 211, 1533-1549 (2014); Ajami, B. et al, Nature neuroscience 14, 1142-1149 (2011). To determine whether blocking the γ-glutamyl transpeptidase activity with acivicin inhibits microglial activation and infiltration of monocytes/macrophages in vivo in the EAE models, Ccr2^RFP/+Cx3cr1^GFP/+ mice in which resident microglia are GFP-positive and inflammatory monocytes are RFP-positive were used. Ryu, J. K. et al. Nat Commun 6, 8164 (2015). EAE was induced with MOG35-55, and mice were prophylactically injected with acivicin.

For the next data set, the system named is MOG35-55 induced EAE. The data set can be described thus: chronic EAE model (MOG35-55), prophylactic treatment, clinical score. In kind it is in vivo. As to conditions: MOG35-55 mice; daily i.p. starting 0 day after immunization; vs saline. The source says: (§1) To further study the ability of acivicin to inhibit microglial activation, acivicin was next studies for its ability to suppress disease progression and ameliorate the disease symptoms in the EAE animal models of multiple sclerosis. Two models of EAE were used: (1) mice immunized with MOG35-55 to induce chronic disease and (2) mice immunized with PLP139-151 to induce relapsing-remitting EAE.
First, to examine the ability of acivicin to prevent disease symptoms and/or progression to multiple sclerosis in a chronic EAE model, acivicin or saline were administered prophylactically to mice immunized with MOG35-55 to induce chronic disease. The mice were immunized with MOG35-55 to induce chronic disease. Acivicin or saline was administered daily by intraperitoneal (i.p.) injection, starting 0 day after immunization (n=15 saline, n=14 acivicin).

Data set [2] relates to pro-inflammatory gene expression. The data set is described as follows: real-time PCR of pro-inflammatory genes in spinal cords at the peak of EAE. In kind it is in vivo, mice. The following applies: spinal cord, peak of MOG35-55 EAE; vs saline. The method, then:
To gain insight into the anti-inflammatory mechanism by which acivicin regulates the progression of inflammation after EAE, real-time PCR analysis was used. Real-time PCR analysis of expression of pro-inflammatory genes in the spinal cords of MOG35-55 treated mice was performed at the peak of EAE in the saline-treated and acivicin-treated mice (n=7 saline and n=7 acivicin).

The subject of data set [3] is fibrin-induced microglia activation. The data set is described as follows: fibrin-induced microglia activation assay. It counts as cell-based. As to conditions: dose-dependent, fibrin stimulus, read-out: IC50, inhibition of fibrin-induced microglia activation. The text has this:
(§2) To identify inhibitors of microglia activation, an assay as described in U.S. Ser. No. 15/109,163, was used to screen a library of 1907 clinical drugs and bioactive compounds. The criteria for hits were ≥50% inhibition of activation and ≤3% cell death to exclude toxic compounds. This represents a three standard deviation difference from the mean value of negative control activated cells. 128 compounds were selected from the screen that satisfied these criteria for dose response curves. Acivicin, a γ-glutamyl transpeptidase inhibitor, was identified among the compounds and was selected for additional characterization as it was an unexpected target for microglial activation and had not been previously linked with neurological diseases.
(§3) Throughout assay development, we consistently observed multiple-fold proliferation (increase in cell count) of microglia upon activation. Proliferation of fibrin-activated microglia cells was inhibited by treatment with acivicin. […] We also examined the effect of acivicin on microglia activation by other immunostimulatory agents.

The test system of data set [4] is fibrin-activated microglia cells. The data set is described as follows: proliferation of fibrin-activated microglia cells. In kind it is cell-based. The following applies: increase in cell count upon activation; dose-dependent (FIG. 3).
Source text: as §3

The next data set relates to PLP139-151 induced EAE. The data set is described as follows: relapsing-remitting EAE model (PLP139-151), therapeutic treatment, clinical score. In kind it is in vivo. The following applies: PLP139-151 mice; daily i.p. starting at peak EAE; vs saline.
Source text: as §1
Next, to assess the ability to therapeutic efficacy of acivicin to treat disease symptoms and/or progression in relapsing-remitting (PLP139-151) EAE model, mice were administered either acivicin or saline injections daily by intraperitoneal (i.p.) injection starting at the peak EAE phase of the EAE PLP139-151. (n=6 saline, and n=7 acivicin). Acivicin decreased the clinical severity of EAE during remission phases (FIG. 7).

Data set [5] concerns LPS-induced microglia activation. The data set can be described thus: LPS-induced microglia activation assay. It counts as cell-based. The following applies: LPS stimulus; comparable to fibrin (FIG. 4).
Source text: as §2, §3

For a further data set, the system named is microglia. The data set is described as follows: cell toxicity in the microglia activation assay. The following applies: up to highest assay concentration of 20 μM. In kind it is cell-based.
Source text: as §2, §3

Data set [6] has as its system myelin damage and neuronal injury in EAE. The data set is described as follows: MBP and SMI-32 immunohistochemistry in EAE. In kind it is in vivo. The following applies: after EAE induction; vs saline-treated mice. The source says:
To investigate whether acivicin can protect from myelin damage and neurodegeneration in EAE, MBP and SMI-32 immunohistochemistry was used to assess myelin damage and neuronal injury.

Entries after “also recorded” stand apart in the source; their conditions may differ.

Consider `N[C@H](C(=O)O)[C@@H]1CC(Cl)=NO1` [acivicin], for which, in data set [1], the “accumulation of Cx3cr1+ microglia (% area GFP in spinal cord)” value is “significantly decreased” and the “infiltration of Ccr2+ monocytes (% area RFP)” value is “significantly decreased”. Besides, the “acute phase of EAE (clinical score)” value with MOG35-55 induced EAE is on record as “completely inhibited”. Moreover, in [2], the “EAE-induced transcription of Ccl5” value is listed as “inhibits”, the “EAE-induced transcription of Cxcl10” value is given as “inhibits”, the “EAE-induced transcription of IL-1b” value is “inhibits” and the “EAE-induced transcription of IL-12p40” value was “inhibits”. The “EAE-induced transcription of iNOS” value in [2] is recorded as “inhibits”. Further, the IC50 in data set [3] was determined as 2000 nM. Further, the “proliferation of fibrin-activated microglia cells” value in [4] is recorded as “inhibited”. Besides, the “clinical severity of EAE during remission phases” value in the data set with PLP139-151 induced EAE is “decreased”. Besides, in data set [5], the “inhibition of microglia activation by LPS (potency)” value was “comparable low μM potency”. Besides, the “toxic cell death / cell toxicity” value with microglia is “no apparent cell toxicity; also recorded: not evident”. In addition, in data set [6], the “axonal injury (SMI-32 immunohistochemistry)” value was “dramatic reduction” and the “myelin damage (MBP immunohistochemistry)” value is “dramatic reduction”.

These data come from US20200289473A1, “METHODS OF TREATING NEURODEGENERATION” (The J David Gladstone Institutes a testamentary trust …, priority 2017, published 2020).
